This note sets out measurements from patent US5911990A, “T-cell receptor peptides and methods for preventing the progression to AIDS in an animal model” (Arizona Board of Regents on Behalf of the University of …, priority 1996, dated 1999).

Ends that are not written are not given here.

This data set in a line: Body weight (Example 2). The class given is in vivo, mice. Particulars: various levels of peptide injection or time course of injection postinfection. The source says: Female C57BL/6 mice, 4-weeks old, were obtained from Charles River Laboratories Inc. (Wilmington, Del.). Animals were cared for as required by the University of Arizona Committee on Animal Research. After 2 weeks housing in the animal facility in the Arizona Health Science Center (Tucson, Ariz.), they were randomly assigned to one of the following treatments with 8 mice per group for study A: (1) uninfected, normal mice; (2) uninfected, normal mice injected with saline (pyrogen free); (3) LP-BM5-infected mice injected with 5 μg TCR Vβ CDRI peptide; (4) LP-BM5infected mice injected with 25 μg TCR Vβ CDR1 peptide; (5) LP-BM5 infected mice injected with 100 μg TCR Vβ CDR1 peptide; (6) LP-BM5-infected mice injected with 200 μg TCR Vβ CDR1 peptide; (7) LP-BM5-infected mice injected with 500 μg TCR Vβ CDR1 peptide; (8) LP-BM5-infected mice injected with saline and 200 μg Poly AU adjuvant; (9) LP-BM5-infected mice injected with 25 μg TCR Vβ CDR1 peptide and 230 μg Poly AU adjuvant; (10) LP-BM5-infected mice injected with saline and 230 μg Ribi MPL TDM CWS adjuvant; (11) LP-BM5-infected mice injected with 5 μg TCR Vβ CDR1 peptide and 230 μg Ribi MPL TDM CWS adjuvant; and (12) LP-BM5-infected mice injected with 25 μg TCR Vβ CDR1 peptide and 230 Ribi MPL TDM CWS adjuvant.
Administration of peptides (dissolved in saline) and adjuvants were performed 2 weeks after LP-BM5 infection. […]

On to “CKPISGHNSLFWYRQT [TCR Vβ CDR1 peptide, Cys Lys Pro Ile Ser Gly His Asn Ser Leu Phe Trp Tyr Arg Gln Thr]”, for which the “body weight of the mice” value is listed as “not affected”.
